Measurements from US20060167030A1, “Sulfonamido-macrocycles and the salts thereof, a pharmaceutical composition comprising these compounds, the method of preparing and the use thereof” (priority 2004, published 2006).

Legend:
Tie2 = target: T1, Tie2 (Homo sapiens, UniProt Q02763); assay: Tie2 kinase assay or Tie2 autophosphorylation ELISA test (not stated which); type: biochemical; details: either assay; not specified per compound; read-out: IC50 of Tie2 inhibition, either in the Tie2 kinase assay or in the Tie2 autophosphorylation ELISA test
T1 construct: fused on or other part: GST in the kinase assays; none in the CHO cell assay
From the text: Biological Experiment 1: ELISA Method
Herein CHO cell-cultures, which are stably transfected by known techniques with Tie2 using DHFR deficiency as selection marker, are stimulated by angiopoietin-2. The specific autophosphorytation of Tie2 receptors is quantified with a sandwich-ELISA using anti-Tie2 antibodies for catch and anti-phosphotyrosine antibodies coupled to HRP as detection.
• 96 well tissue culture plate, sterile, Greiner • 96 well FluoroNunc plate MaxiSorp Surface C, Nunc • 96 well plate polypropylene for compound dilution in DMSO • CHO Tie2/DHFR (transfected cells) • PBS−; PBS++, DMSO • MEM alpha Medium with Glutamax-I without Ribonucleosides and Deoxyribonucleosides (Gibco #32561-029) • with 10% FCS after dialysis! and 1% PenStrep • Lysis buffer: 1 Tablet “Complete” protease inhibitor • 1 cap Vanadate (1 mL>40 mg/mL; working solution 2 mM) • ad 50 mL with Duschl-Puffer • pH 7.6 • Anti-TIE-II antibody 1:425 in Coating Buffer pH 9.6 • Stock solution: 1.275 mg/mL>working: 3 μg/mL • PBST: 2 bottles PBS(10×)+10 ml Tween, fill up with VE-water • RotiBlock 1:10 in VE-water • Anti-Phosphotyrosine HRP-Conjugated 1:10000 in 3% TopBlock • 3% TopBlock in PBST • BM Chemiluminescence ELISA Substrate (POD) • solution B 1:100 solution A • SF9 cell culture medium • Ang2-Fc in SF9 cell culture medium Cell Experiment: • Dispense 5×10^4 cells/well/98 μL in 96 well tissue culture plate • Incubate at 37° C./5% CO2 • After 24 h add compounds according to desired concentrations • Add also to control and stimulated values without compounds 2 μL DMSO • And mix for a few min at room temperature • Add 100 μL Ang2-Fc to all wells except control, which receives insect medium • Incubate 20 min at 37° C. • Wash 3× with PBS++ • Add 100 μl Lysis buffer/well and shake a couple of min at room temperature • Store lysates at […] before utilizing for the ELISA Performance of Sandwich-ELISA • Coat 96 well FluoroNunc Plate MaxiSorp Surface C with anti-Tie2 Mab • 1:425 in Coating buffer pH 9.6; 100 μL/well overnight at 4° C. • Wash 2× with PBST • Blcock plates with 250 μL/well RotiBtock 1:10 in VE-water • Incubate for 2 h at room temperature or overnight at 4° C. shaking • Wash 2× in PBST • Add thawed lysates to wells and incubate overnight shaking at 4° C. • Wash 2× with PBST • Add 100 μL/well anti-Phosphotyrosine HRP-Conjugated 1:10000 in 3% TopBLock (3% TopBLock in PBST) and incubate overnight under shaking • Wash 6× with PBST • Add 100 μL/well BM Chemiluminescence ELISA Substrate (POD) solutions 1 und 2 (1:100) • Determine luminescence with the LumiCount. Biological Experiment 2: Tie-2-Kinase HTRF-Assay
Tie-2 phosphorylates tyrosine residues of the artificial substrate poLyGAT (biolinylated poLyGLuAlaTyr). Detection of phosphorylated product is achieved specifically by a trimeric detection complex consisting of the phosphorylated substrate, streptavidin-XLent (SA-XLent) which binds to biotin, and Europium Cryptate-LabeLed anti-phosphotyrosine antibody PT66 which binds to phosphorylated tyrosine. Excitation of Europium fluorescence with 337 nm light results in emission of long-lived light with 620 nm. In case a trimeric detection complex has formed, part of the energy will be transferred to the SA-XLent fluorophore that itself then emits long-lived light of 665 nm (FRET: fluorescence resonance energy transfer). […] Measurement is performed in a Packard Discovery or BMG Rubystar instrument. A-counts (emission at 665 nm) will be divided by B-counts (emission at 620 nm) and multiplicated with a factor of 10000. The resulting numbers are called the “well ratio” of the sample.
A recombinant fusion protein of GST and the intracellular domains of Tie-2, expressed in insect cells (Hi-5) and purified by Glutathion-Sepharose affinity chromatography was used as kinase. Alternatively, commercially available GST-Tie2-fusion protein (Upstate Biotechnology, Dundee, Scotland) can be used. […]

[1] = Proliferation test / cytotoxicity assay (crystal violet); type: cell-based; details: human, DU 145 tumour cells; cell line DU 145
Protocol: Biological Experiment 3: Proliferation Test
To examine cell toxicity a cell proliferation test were established.
With the cell proliferation test different tumour cell lines (e.g. Du 145) can be examined. The cells were dispensed in RPMI 1640 culture medium, supplied with 10% (v/v) fetal calf serum plus 1% (v/v) Penicillin/Streptomycin solution at a cell density of 2.000 cell/100 μL medium/per well (96 well plate). After three hours the cells were washed with PBS (containing calcium and magnesium). 100 μL of culture medium above with 0.1% (v/v) fetal calf serum was added and cultured at 37° C. and 5% CO2-atmosphere. Next day compounds of the present invention diluted in DMSO for appropriate concentrations were added and further 100 μL culture medium 0.5% (v/v) fetal calf serum. After 5 days cell culturing at 37° C. and 5% CO2-atmosphere cells were washed with PBS. 20 μL of glutaraldehyde solution (11% (v/v)) is added and the cells were slightly shaken at room temperature for 15 min. After that the cell were washed 3 times and dried in the air. 100 μL of crystal violet solution (0.1% at pH 3.5) were added and the cells were shaken for 30 min. The cells were washed with tap water and air-dried. The colour is dissolved with 100 μL of acetic acid (10% (v/v)) under strong shaking for 5 min. The absorption was measured at 595 nm wavelength.

T1 sequence (Q02763 770-1124 limits assumed): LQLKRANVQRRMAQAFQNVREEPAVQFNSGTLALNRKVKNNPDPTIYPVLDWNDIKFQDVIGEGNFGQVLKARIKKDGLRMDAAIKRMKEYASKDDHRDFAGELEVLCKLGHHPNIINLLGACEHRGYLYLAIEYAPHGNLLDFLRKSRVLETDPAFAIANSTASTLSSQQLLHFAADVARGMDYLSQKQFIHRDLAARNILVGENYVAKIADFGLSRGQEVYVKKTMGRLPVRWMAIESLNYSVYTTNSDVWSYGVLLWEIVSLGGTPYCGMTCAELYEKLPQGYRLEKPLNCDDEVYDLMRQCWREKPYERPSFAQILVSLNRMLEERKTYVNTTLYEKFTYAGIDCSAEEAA

Row | SMILES | IC50 (Tie2) | IC50 at 5 days [1]
1 | O=S1(=O)NCCCNc2nc(ncc2/C=C\c2ccccc2)Nc2cccc1c2 [Example 51, 1^5-((Z)-styryl)-4-thia-2,5,9-triaza-1(2,4)-pyrimidina-3(1,3)-benzenacyclononaphane 4,4-dioxide] | ≤ 2000 nM | –
2 | C=C(c1ccccc1)c1cnc2nc1NCCCNS(=O)(=O)c1cccc(c1)N2 [Example 52, 1^5-(1-phenyl-vinyl)-4-thia-2,5,9-triaza-1(2,4)-pyrimidina-3(1,3)-benzenacyclononaphane 4,4-dioxide] | ≤ 2000 nM | –
3 | O=S1(=O)NCCCNc2nc(ncc2-c2ccc(O)cc2)Nc2cccc1c2 [Example 9, 4-[4,4-dioxo-4λ^6-thia-2,5,9-triaza-1(2,4)-pyrimidina-3(1,3)-benzenacyclononaphan-1^5-yl]phenol] | ≤ 2000 nM | –
4 | COC(=O)c1ccc(-c2cnc3nc2NCCCNS(=O)(=O)c2cccc(c2)N3)cc1 [Example 6, methyl 4-[4,4-dioxo-4λ^6-thia-2,5,9-triaza-1(2,4)-pyrimidina-3(1,3)-benzenacyclononaphan-1^5-yl]benzoate] | ≤ 2000 nM | > 1000 nM
5 | COc1ccc(-c2cnc3nc2NCCCNS(=O)(=O)c2cccc(c2)N3)cc1 [Example 10, 1^5-(4-methoxyphenyl)-4-thia-2,5,9-triaza-1(2,4)-pyrimidina-3(1,3)-benzenacyclononaphane 4,4-dioxide] | ≤ 2000 nM | > 1000 nM
6 | CS(=O)(=O)c1ccc(-c2cnc3nc2NCCCNS(=O)(=O)c2cccc(c2)N3)cc1 [Example 11, 1^5-(4-methylsulfonylphenyl)-4-thia-2,5,9-triaza-1(2,4)-pyrimidina-3(1,3)-benzenacyclononaphane 4,4-dioxide] | ≤ 2000 nM | –
7 | CC(=O)c1ccc(-c2cnc3nc2NCCCNS(=O)(=O)c2cccc(c2)N3)cc1 [Example 7, 1-[4-[4,4-dioxo-4λ^6-thia-2,5,9-triaza-1(2,4)-pyrimidina-3(1,3)-benzenacyclononaphan-1^5-yl]phenyl]-ethanone] | ≤ 2000 nM | > 1000 nM
8 | O=S1(=O)NCCCNc2nc(ncc2-c2ccccc2)Nc2cccc1c2 [Example 8, 1^5-phenyl-4-thia-2,5,9-triaza-1(2,4)-pyrimidina-3(1,3)-benzenacyclononaphane 4,4-dioxide] | ≤ 2000 nM | > 1000 nM
